# Patent US20250186627A1, “RADIOLABELED COMPOUNDS TARGETING THE PROSTATE-SPECIFIC MEMBRANE ANTIGEN” (PROVINCIAL HEALTH SERVICES AUTHORITY, priority 2022, published 2025)
# *1 amine or outer side, *2 acyl side, *3 side chain or, on linkers, in order; H or OH if unused. Where a SMILES comes first, the peptide text is derived from it. [ ]: non-standard residue; d: D form. The star is where a group is joined. ξ: configuration not given here. ξLys(Nα-CO-ξAad) = O=C(O)CCCC(NC(=O)NC(CCCCN*)C(=O)O)C(=O)O; Butanoyl(4-(4-NO2Ph)) = O=C(CCCc1ccc([N+](=O)[O-])cc1)*; DOTA = O=C(O)CN1CCN(CC(=O)O)CCN(CC(=O)*)CCN(CC(=O)O)CC1; Butanoyl(4-(4-MeO-phenyl)) = COc1ccc(CCCC(=O)*)cc1; ξAla(9-anthryl) = NC(Cc1c2ccccc2cc2ccccc12)C(=O)O; X2 = O=C(NC(CCCCN*)C(=O)O)NC(CC(F)C(=O)O)C(=O)O; X1 = O=C(C1CCC(CN[*:1])CC1)[*:2]; ξK = NCCCCC(N)C(=O)O
# Test system: NRG-mice bearing LNCaP tumors
# Experiment: Biodistribution (and PET/SPECT imaging) in NRG-mice bearing LNCaP tumors
# Assay type: in vivo
# Conditions: for Biodistribution: Adrenal gland / Biodistribution: Blood / Biodistribution: Bone / Biodistribution: Brain / Biodistribution: Fat / Biodistribution: Heart / Biodistribution: Intestine / Biodistribution: LNCaP tumor / Biodistribution: Liver / Biodistribution: Lungs / Biodistribution: Muscle / Biodistribution: Pancreas / Biodistribution: Salivary gland / Biodistribution: Seminal gland / Biodistribution: Spleen / Biodistribution: Stomach / Biodistribution: Testes / Biodistribution: Thyroid / Biodistribution: Urine / Biodistribution: kidney: Avg
# Method: LNCaP cell line was obtained from ATCC (LNCaP clone FGC, CRL-1740). It was established from a metastatic site of left supraclavicular lymph node of human prostatic adenocarcinoma. Cells were cultured in PRMI 1640 medium supplemented with 10% FBS, penicillin (100 U/mL) and streptomycin (100 μg/mL) at 37° C. in a humidified incubator containing 5% CO2. Cells grown to 80-90% confluence were then washed with sterile phosphate-buffered saline (1×PBS pH 7.4) and trypsinization. The collected cells number was counted with a Hausser Scientific (Horsham, PA) Hemacytometer. Approximately 10 million LNCaP cells were inoculated into the left dorsal flank of immunocomprised NRG mice. The tumours were allowed to grow for 4-6 weeks and used for imaging and biodistribution studies when a volume of 200-600 mm^3 was reached.
# PET imaging experiments were conducted using Siemens Inveon micro PET/CT scanner. SPECT imaging experiments were conducted using an MILabs micro SPECT/CT scanner. Each tumor bearing mouse was injected 4-6 MBq of ^68Ga or 18.5 MBq of ^177Lu labeled tracer through the tail vein under anesthesia (2% isoflurane in oxygen). The mice were allowed to recover and roam freely in their cage. At pre-defined time point, the mice were sedated again with 2% isoflurane in oxygen inhalation and positioned in the scanner. A 10-min CT scan was conducted first for localization and attenuation correction after segmentation for reconstructing the PET or SPECT images. Then, a 10-min static PET imaging or a one hour (30 min×2 frames) of static SPECT scan was performed to determined uptake in tumor and other organs. The mice were kept warm by a heating pad during acquisition.
# For biodistribution studies, the mice were injected with the radiotracer as described above. The mice were anesthetized with 2% isoflurane inhalation, and euthanized by CO2 inhalation. Blood was withdrawn immediately from the heart, and the organs/tissues of interest were collected. The collected organs/tissues were weighed and counted using a Perkin Elmer (Waltham, MA) Wizard2 2480 gamma counter. The uptake in each organ/tissue was normalized to the injected dose (radioactivity) using a standard curve, and expressed as the percentage of the injected dose per gram of tissue (% ID/g).
smiles,measurement,setting,value
COc1ccc(CCCC(=O)NCC(=O)NC(CCCCNC(=O)CN2CCN(CC(=O)[O-])CCN(CC(=O)[O-])CCN(CC(=O)[O-])CC2)C(=O)NCC(=O)NCC2CCC(C(=O)NC(Cc3c4ccccc4cc4ccccc34)C(=O)NCCCCC(NC(=O)NC(CCCC(=O)O)C(=O)O)C(=O)O)CC2)cc1.[68Ga+3] (stereo not shown) [^68Ga-CCZ02009] ({Butanoyl(4-(4-MeO-phenyl))}-G[ξK](DOTA)G[X1][ξAla(9-anthryl)]-{ξLys(Nα-CO-ξAad)}),Blood radioactivity,1 and 3 h p.i.,high and sustained blood radioactivity
same,Biodistribution: Adrenal gland,1 h p.i.,3.82 % ID/g
same,Biodistribution: Blood,1 h p.i.,19.52 % ID/g
same,Biodistribution: Bone,1 h p.i.,0.77 % ID/g
same,Biodistribution: Brain,1 h p.i.,0.30 % ID/g
same,Biodistribution: Fat,1 h p.i.,1.35 % ID/g
same,Biodistribution: Heart,1 h p.i.,4.02 % ID/g
same,Biodistribution: Intestine,1 h p.i.,1.72 % ID/g
same,Biodistribution: LNCaP tumor,1 h p.i.,7.11 % ID/g
same,Biodistribution: Liver,1 h p.i.,3.04 % ID/g
same,Biodistribution: Lungs,1 h p.i.,6.51 % ID/g
same,Biodistribution: Muscle,1 h p.i.,1.15 % ID/g
same,Biodistribution: Pancreas,1 h p.i.,1.56 % ID/g
same,Biodistribution: Salivary gland,1 h p.i.,2.74 % ID/g
same,Biodistribution: Seminal gland,1 h p.i.,0.88 % ID/g
same,Biodistribution: Spleen,1 h p.i.,1.56 % ID/g
same,Biodistribution: Stomach,1 h p.i.,0.71 % ID/g
same,Biodistribution: Testes,1 h p.i.,2.33 % ID/g
same,Biodistribution: Thyroid,1 h p.i.,2.92 % ID/g
same,Biodistribution: Urine,1 h p.i.,63.67 % ID/g
same,Biodistribution: kidney,1 h p.i.,7.57 % ID/g
same,Biodistribution: Adrenal gland,3 h p.i.,4.34 % ID/g
same,Biodistribution: Blood,3 h p.i.,19.18 % ID/g
same,Biodistribution: Bone,3 h p.i.,1.62 % ID/g
same,Biodistribution: Brain,3 h p.i.,0.32 % ID/g
same,Biodistribution: Fat,3 h p.i.,1.52 % ID/g
same,Biodistribution: Heart,3 h p.i.,3.76 % ID/g
same,Biodistribution: Intestine,3 h p.i.,1.53 % ID/g
same,Biodistribution: LNCaP tumor,3 h p.i.,17.69 % ID/g
same,Biodistribution: Liver,3 h p.i.,3.35 % ID/g
same,Biodistribution: Lungs,3 h p.i.,7.15 % ID/g
same,Biodistribution: Muscle,3 h p.i.,1.34 % ID/g
same,Biodistribution: Pancreas,3 h p.i.,1.41 % ID/g
same,Biodistribution: Salivary gland,3 h p.i.,3.82 % ID/g
same,Biodistribution: Seminal gland,3 h p.i.,1.73 % ID/g
same,Biodistribution: Spleen,3 h p.i.,2.17 % ID/g
same,Biodistribution: Stomach,3 h p.i.,0.73 % ID/g
same,Biodistribution: Testes,3 h p.i.,2.28 % ID/g
same,Biodistribution: Thyroid,3 h p.i.,3.59 % ID/g
same,Biodistribution: Urine,3 h p.i.,56.09 % ID/g
same,Biodistribution: kidney,3 h p.i.,9.28 % ID/g
COc1ccc(CCCC(=O)NCC(=O)NC(CCCCNC(=O)CN2CCN(CC(=O)[O-])CCN(CC(=O)[O-])CCN(CC(=O)[O-])CC2)CC(=O)NCC2CCC(C(=O)NC(Cc3c4ccccc4cc4ccccc34)C(=O)NCCCCC(NC(=O)NC(CCCC(=O)O)C(=O)O)C(=O)O)CC2)cc1.[68Ga+3] (stereo not shown) [^68Ga-CCZ02015],Biodistribution: Adrenal gland,1 h p.i.,3.28 % ID/g
same,Biodistribution: Blood,1 h p.i.,15.78 % ID/g
same,Biodistribution: Bone,1 h p.i.,0.92 % ID/g
same,Biodistribution: Brain,1 h p.i.,0.25 % ID/g
same,Biodistribution: Fat,1 h p.i.,1.52 % ID/g
same,Biodistribution: Heart,1 h p.i.,3.19 % ID/g
same,Biodistribution: Intestine,1 h p.i.,1.46 % ID/g
same,Biodistribution: LNCaP tumor,1 h p.i.,11.16 % ID/g
same,Biodistribution: Liver,1 h p.i.,2.98 % ID/g
same,Biodistribution: Lungs,1 h p.i.,5.90 % ID/g
same,Biodistribution: Muscle,1 h p.i.,1.07 % ID/g
same,Biodistribution: Pancreas,1 h p.i.,1.34 % ID/g
same,Biodistribution: Salivary gland,1 h p.i.,2.19 % ID/g
same,Biodistribution: Seminal gland,1 h p.i.,0.72 % ID/g
same,Biodistribution: Spleen,1 h p.i.,1.28 % ID/g
same,Biodistribution: Stomach,1 h p.i.,0.46 % ID/g
same,Biodistribution: Testes,1 h p.i.,1.77 % ID/g
same,Biodistribution: Thyroid,1 h p.i.,2.54 % ID/g
same,Biodistribution: Urine,1 h p.i.,177.03 % ID/g
same,Biodistribution: kidney,1 h p.i.,11.93 % ID/g
same,Biodistribution: Adrenal gland,3 h p.i.,3.36 % ID/g
same,Biodistribution: Blood,3 h p.i.,10.81 % ID/g
same,Biodistribution: Bone,3 h p.i.,1.20 % ID/g
same,Biodistribution: Brain,3 h p.i.,0.19 % ID/g
same,Biodistribution: Fat,3 h p.i.,1.04 % ID/g
same,Biodistribution: Heart,3 h p.i.,2.55 % ID/g
same,Biodistribution: Intestine,3 h p.i.,1.17 % ID/g
same,Biodistribution: LNCaP tumor,3 h p.i.,22.60 % ID/g
same,Biodistribution: Liver,3 h p.i.,2.13 % ID/g
same,Biodistribution: Lungs,3 h p.i.,4.65 % ID/g
same,Biodistribution: Muscle,3 h p.i.,1.13 % ID/g
same,Biodistribution: Pancreas,3 h p.i.,1.10 % ID/g
same,Biodistribution: Salivary gland,3 h p.i.,2.18 % ID/g
same,Biodistribution: Seminal gland,3 h p.i.,1.63 % ID/g
same,Biodistribution: Spleen,3 h p.i.,1.01 % ID/g
same,Biodistribution: Stomach,3 h p.i.,0.84 % ID/g
same,Biodistribution: Testes,3 h p.i.,2.07 % ID/g
same,Biodistribution: Thyroid,3 h p.i.,2.09 % ID/g
same,Biodistribution: Urine,3 h p.i.,84.38 % ID/g
same,Biodistribution: kidney,3 h p.i.,10.94 % ID/g
O=C([O-])CN1CCN(CC(=O)[O-])CCN(CC(=O)NCCCCC(NC(=O)CNC(=O)CCCc2ccc([N+](=O)[O-])cc2)C(=O)NCC(=O)NCC2CCC(C(=O)NC(Cc3c4ccccc4cc4ccccc34)C(=O)NCCCCC(NC(=O)NC(CC(F)C(=O)O)C(=O)O)C(=O)O)CC2)CCN(CC(=O)[O-])CC1.[68Ga+3] (stereo not shown) [^68Ga-CCZ02025] ({Butanoyl(4-(4-NO2Ph))}-G[ξK](DOTA)G[X1][ξAla(9-anthryl)]-X2),Biodistribution: Adrenal gland,1 h p.i.,5.96 % ID/g
same,Biodistribution: Blood,1 h p.i.,19.40 % ID/g
same,Biodistribution: Bone,1 h p.i.,1.01 % ID/g
same,Biodistribution: Brain,1 h p.i.,0.30 % ID/g
same,Biodistribution: Fat,1 h p.i.,2.74 % ID/g
same,Biodistribution: Heart,1 h p.i.,4.13 % ID/g
same,Biodistribution: Intestine,1 h p.i.,1.93 % ID/g
same,Biodistribution: LNCaP tumor,1 h p.i.,9.19 % ID/g
same,Biodistribution: Liver,1 h p.i.,4.07 % ID/g
same,Biodistribution: Lungs,1 h p.i.,8.79 % ID/g
same,Biodistribution: Muscle,1 h p.i.,1.48 % ID/g
same,Biodistribution: Pancreas,1 h p.i.,1.89 % ID/g
same,Biodistribution: Salivary gland,1 h p.i.,3.24 % ID/g
same,Biodistribution: Seminal gland,1 h p.i.,2.55 % ID/g
same,Biodistribution: Spleen,1 h p.i.,1.90 % ID/g
same,Biodistribution: Stomach,1 h p.i.,0.59 % ID/g
same,Biodistribution: Testes,1 h p.i.,2.65 % ID/g
same,Biodistribution: Thyroid,1 h p.i.,4.11 % ID/g
same,Biodistribution: Urine,1 h p.i.,104.40 % ID/g
same,Biodistribution: kidney,1 h p.i.,14.01 % ID/g
same,Biodistribution: Adrenal gland,3 h p.i.,4.26 % ID/g
same,Biodistribution: Blood,3 h p.i.,13.83 % ID/g
same,Biodistribution: Bone,3 h p.i.,1.27 % ID/g
same,Biodistribution: Brain,3 h p.i.,0.22 % ID/g
same,Biodistribution: Fat,3 h p.i.,1.79 % ID/g
same,Biodistribution: Heart,3 h p.i.,2.86 % ID/g
same,Biodistribution: Intestine,3 h p.i.,1.12 % ID/g
same,Biodistribution: LNCaP tumor,3 h p.i.,18.79 % ID/g
same,Biodistribution: Liver,3 h p.i.,3.21 % ID/g
same,Biodistribution: Lungs,3 h p.i.,5.21 % ID/g
same,Biodistribution: Muscle,3 h p.i.,0.95 % ID/g
same,Biodistribution: Pancreas,3 h p.i.,1.13 % ID/g
same,Biodistribution: Salivary gland,3 h p.i.,2.47 % ID/g
same,Biodistribution: Seminal gland,3 h p.i.,1.83 % ID/g
same,Biodistribution: Spleen,3 h p.i.,1.17 % ID/g
same,Biodistribution: Stomach,3 h p.i.,0.57 % ID/g
same,Biodistribution: Testes,3 h p.i.,2.80 % ID/g
same,Biodistribution: Thyroid,3 h p.i.,2.41 % ID/g
same,Biodistribution: Urine,3 h p.i.,101.55 % ID/g
same,Biodistribution: kidney,3 h p.i.,9.90 % ID/g
